Laboratory results published in article PMC8173106, “Modulating Enzyme Function via Dynamic Allostery within Biliverdin Reductase B” (Frontiers in Molecular Biosciences, 2021).

Target: T1, human BLVRB (biliverdin reductase B) (Homo sapiens, UniProt P30043)
T1 construct: full length, 206 residues; codon-optimised, pET21b (T164S in pJ401k); N-terminal 6xHis tag removed with thrombin
T1 sequence (P30043 1-206): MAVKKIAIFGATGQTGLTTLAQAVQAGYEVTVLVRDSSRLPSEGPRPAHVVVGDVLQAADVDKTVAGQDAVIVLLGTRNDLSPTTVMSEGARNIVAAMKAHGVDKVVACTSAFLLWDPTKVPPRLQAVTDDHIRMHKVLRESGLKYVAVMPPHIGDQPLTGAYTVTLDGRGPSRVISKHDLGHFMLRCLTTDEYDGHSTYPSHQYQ
Assay: isothermal titration calorimetry
Format: binding
Settings: 50 mM bis-tris, pH 6.5, 50 mM NaCl, 20 C; apo enzyme

With `NC(=O)c1ccc[n+]([C@@H]2O[C@H](COP(=O)(O)OP(=O)(O)OC[C@H]3O[C@@H](n4cnc5c(N)ncnc54)[C@H](OP(=O)(O)O)[C@@H]3O)[C@@H](O)[C@H]2O)c1` [NADP^+] the KD was “screened for their dissociation constants (KD) to NADP^+ using ITC”.
